Data reported in ChEMBL document CHEMBL5053536, “Discovery of Quinazoline-2,4(1H,3H)-dione Derivatives Containing 3-Substituted Piperizines as Potent PARP-1/2 Inhibitors─Design, Synthesis, In Vivo Antitumor Activity, and X-ray Crystal Structure Analysis” (J Med Chem, 2021).
Active and inactive are the calls of the source. The rule behind the calls is not given here.

Legend:
[1] = AUC(0 to infinity) in Beagle dog at 20 mg/kg, po measured upto 24 hrs by LC-MS/MS analysis; assay type: ADME, organism-based, Canis lupus familiaris; set-up: dose 20 mg/kg, time < 24 hrs, route po; details: in vivo
T98G [2] = assay: Inhibition of PARP1/2-mediated DNA repair in human T98G cells assessed as reduction in PAR formation at 1 to 10 uM after 24 hrs in absence of TMZ by Western blot analysis; assay type: cell-based; details: dose 1-10 µM
MX1 [3] = assay: Inhibition of PARP1/2 in human MX1 cells assessed as reduction in PAR formation at 1 to 10 uM after 24 hrs by Western blot analysis; assay type: cell-based; details: dose 1-10 µM
T98G [4] = assay: Inhibition of PARP1/2-mediated DNA repair in human T98G cells assessed as reduction in PAR formation at 1 to 10 uM after 24 hrs in presence of TMZ by Western blot analysis; assay type: cell-based; details: dose 1-10 µM
Mus musculus [5] = assay: Toxicity in athymic nu/nu mouse xenografted with human MX1 cells assessed as reduction in body weight at 12.5 to 25 mg/kg, po administered once daily for 5 days and measured upto day 17; assay type: organism-based; details: in vivo, 408 h, dose 12.5-25 mg/kg, time < 17 day
[6] = biological target: T1, Poly [ADP-ribose] polymerase 2 (Homo sapiens, UniProt Q9UGN5); assay: Inhibition of recombinant human PARP2 using NAD+ as substrate incubated for 1 hr by ELISA
[7] = Cmax in Sprague-Dawley rat at 20 mg/kg, po measured upto 24 hrs by LC-MS/MS analysis; assay type: ADME, organism-based; set-up: time < 24 hrs, dose 20 mg/kg, route po; details: in vivo
U-87 MG [8] = assay: Antitumor activity against human U-87MG cells xenografted in BALB/c mouse assessed as T/C ratio at 50 mg/kg, po administered once daily for 5 days and measured upto 32 days in presence of 30 mg/kg TMZ by MRI scanner; assay type: functional, U-87MG ATCC; details: time <= 32 day
[9] = biological target: T2, Poly [ADP-ribose] polymerase 1 (Homo sapiens, UniProt P09874); assay: Inhibition of recombinant human PARP1 using NAD+ as substrate incubated for 1 hr by ELISA
U-251 [10] = assay: Inhibition of PARP1/2-mediated DNA repair in human U-251 cells assessed as reduction in PAR formation at 1 to 10 uM after 24 hrs in presence of TMZ by Western blot analysis; assay type: cell-based; details: dose 1-10 µM
U-251 [11] = assay: Cytotoxicity against human U251 cells assessed as reduction in cell viability at 5 to 10 uM incubated for 72 hrs in presence of TMZ by MTT assay; assay type: functional, cell-based; details: dose 5-10 µM
[12] = biological target: T1, Poly [ADP-ribose] polymerase 2; assay: Binding affinity to recombinant human PARP2 assessed as dissociation constant by SPR assay
[13] = AUC(0 to t) in Beagle dog at 0.4 mg/kg, iv measured upto 24 hrs by LC-MS/MS analysis; assay type: ADME, organism-based, Canis lupus familiaris; set-up: time < 24 hrs, dose 0.4 mg/kg, route iv; details: in vivo
Mus musculus [14] = assay: Toxicity in BALB/c mouse xenografted with human U-87MG cells assessed as effect on body weight at 50 mg/kg, po administered once daily for 5 days and measured on day 8 in presence of 30 mg/kg TMZ (reference value: 18.5 +/- 1 g); assay type: organism-based; details: in vivo, 192 h, time 8 day
[15] = Oral bioavailability in Beagle dog at 20 mg/kg measured upto 24 hrs by LC-MS/MS analysis; assay type: ADME, organism-based, Canis lupus familiaris; details: in vivo
U-87 MG [16] = assay: Antitumor activity against human U-87MG cells xenografted in BALB/c mouse assessed as reduction in tumor volume at 25 mg/kg, po administered once daily for 5 days and measured on day 32 in presence of 30 mg/kg TMZ by MRI scanner; assay type: functional, U-87MG ATCC; details: time 32 day
MDA-MB-436 [17] = assay: Antitumor activity against human MDA-MB-436 cells xenografted in po dosed athymic nu/nu mouse assessed as tumor growth inhibition administered once daily for 17 days; assay type: functional, organism-based; details: time 17.0 day
[18] = AUC(0 to t) in Beagle dog at 20 mg/kg, po measured upto 24 hrs by LC-MS/MS analysis; assay type: ADME, organism-based, Canis lupus familiaris; set-up: time < 24 hrs, dose 20 mg/kg, route po; details: in vivo
[19] = MRT(0 to infinity) in Sprague-Dawley rat at 20 mg/kg, po measured upto 24 hrs by LC-MS/MS analysis; assay type: ADME, organism-based; details: in vivo
[20] = MRT(0 to t) in Sprague-Dawley rat at 20 mg/kg, po measured upto 24 hrs by LC-MS/MS analysis; assay type: ADME, organism-based; details: in vivo
[21] = MRT(0 to t) in Beagle dog at 0.4 mg/kg, iv measured upto 24 hrs by LC-MS/MS analysis; assay type: ADME, organism-based, Canis lupus familiaris; details: in vivo
Daoy = assay: Cytotoxicity against human Daoy cells assessed as reduction in cell viability at 5 to 10 uM incubated for 72 hrs in presence of TMZ by MTT assay; assay type: functional, cell-based; details: dose 5-10 µM
[22] = Tmax in Beagle dog at 20 mg/kg, po measured upto 24 hrs by LC-MS/MS analysis; assay type: ADME, organism-based, Canis lupus familiaris; details: in vivo
T98G [23] = assay: Inhibition of PARP1/2-mediated DNA repair in human T98G cells assessed as increase in […] expression at 1 to 10 uM after 24 hrs in absence of TMZ by Western blot analysis; assay type: cell-based; details: dose 1-10 µM
MX1 [24] = assay: Antitumor activity against human MX1 cells xenografted in athymic nu/nu mouse assessed as tumor growth inhibition at 25 mg/kg, po administered once daily for 5 days and measured on day 17 in presence of 50 mg/kg TMZ; assay type: functional; details: Mus musculus, MX1, 408 h, time 17 day, read-out: TGI
U-87 MG [25] = assay: Antitumor activity against human U-87MG cells xenografted in BALB/c mouse assessed as tumor growth inhibition at 25 mg/kg, po administered once daily for 5 days and measured upto 32 days in presence of 30 mg/kg TMZ by MRI scanner; assay type: functional, U-87MG ATCC; details: 768 h, time <= 32 day, read-out: TGI
MDA-MB-436 [26] = assay: Antitumor activity against human MDA-MB-436 cells xenografted in athymic nu/nu mouse assessed as tumor growth inhibition at 20 to 80 mg/kg, po administered once daily for 17 days; assay type: functional; details: dose 20-80 mg/kg, time 17 day
T98G [27] = assay: Inhibition of PARP1/2-mediated DNA repair in human T98G cells assessed as increase in […] expression at 1 to 10 uM after 24 hrs in presence of TMZ by Western blot analysis; assay type: cell-based; details: dose 1-10 µM
[28] = biological target: T1, Poly [ADP-ribose] polymerase 2; assay: Binding affinity to recombinant human PARP2 assessed as dissociation half life by SPR assay
[29] = MRT(0 to t) in Beagle dog at 20 mg/kg, po measured upto 24 hrs by LC-MS/MS analysis; assay type: ADME, organism-based, Canis lupus familiaris; details: in vivo
[30] = Half life in Sprague-Dawley rat at 20 mg/kg, po measured upto 24 hrs by LC-MS/MS analysis; assay type: ADME, organism-based; details: in vivo
U-251 [31] = assay: Inhibition of PARP1/2-mediated DNA repair in human U-251 cells assessed as increase in […] expression at 1 to 10 uM after 24 hrs in absence of TMZ by Western blot analysis; assay type: cell-based; details: dose 1-10 µM
Homo sapiens = organism: Homo sapiens; assay: Selectivity index, ratio of IC50 for inhibition of recombinant human PARP2 to IC50 for inhibition of recombinant human PARP1
[32] = Half life in Beagle dog at 0.4 mg/kg, iv measured upto 24 hrs by LC-MS/MS analysis; assay type: ADME, organism-based, Canis lupus familiaris; details: in vivo
[33] = Drug concentration in Sprague-Dawley rat brain assessed as brain blood ratio measured upto 24 hrs by LC-MS/MS analysis; assay type: ADME, organism-based; details: read-out: BBR
[34] = biological target: T2, Poly [ADP-ribose] polymerase 1; assay: Binding affinity to recombinant human PARP1 assessed as dissociation half life by SPR assay

T1 sequence (Q9UGN5 whole entry): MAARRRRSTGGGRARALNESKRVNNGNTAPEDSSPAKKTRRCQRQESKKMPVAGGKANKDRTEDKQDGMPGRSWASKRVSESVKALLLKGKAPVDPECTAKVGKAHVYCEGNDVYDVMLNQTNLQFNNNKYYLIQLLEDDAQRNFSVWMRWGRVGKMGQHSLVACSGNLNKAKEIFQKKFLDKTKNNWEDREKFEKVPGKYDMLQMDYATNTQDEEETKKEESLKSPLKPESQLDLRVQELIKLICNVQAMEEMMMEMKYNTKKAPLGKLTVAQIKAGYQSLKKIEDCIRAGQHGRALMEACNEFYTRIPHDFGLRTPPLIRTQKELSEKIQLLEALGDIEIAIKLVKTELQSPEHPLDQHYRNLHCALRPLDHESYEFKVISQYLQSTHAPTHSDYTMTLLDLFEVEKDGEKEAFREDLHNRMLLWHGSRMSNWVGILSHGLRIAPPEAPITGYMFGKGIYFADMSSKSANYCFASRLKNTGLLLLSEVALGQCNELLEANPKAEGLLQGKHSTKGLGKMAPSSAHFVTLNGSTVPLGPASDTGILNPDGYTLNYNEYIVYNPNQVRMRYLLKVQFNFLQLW
T2 sequence (P09874 whole entry): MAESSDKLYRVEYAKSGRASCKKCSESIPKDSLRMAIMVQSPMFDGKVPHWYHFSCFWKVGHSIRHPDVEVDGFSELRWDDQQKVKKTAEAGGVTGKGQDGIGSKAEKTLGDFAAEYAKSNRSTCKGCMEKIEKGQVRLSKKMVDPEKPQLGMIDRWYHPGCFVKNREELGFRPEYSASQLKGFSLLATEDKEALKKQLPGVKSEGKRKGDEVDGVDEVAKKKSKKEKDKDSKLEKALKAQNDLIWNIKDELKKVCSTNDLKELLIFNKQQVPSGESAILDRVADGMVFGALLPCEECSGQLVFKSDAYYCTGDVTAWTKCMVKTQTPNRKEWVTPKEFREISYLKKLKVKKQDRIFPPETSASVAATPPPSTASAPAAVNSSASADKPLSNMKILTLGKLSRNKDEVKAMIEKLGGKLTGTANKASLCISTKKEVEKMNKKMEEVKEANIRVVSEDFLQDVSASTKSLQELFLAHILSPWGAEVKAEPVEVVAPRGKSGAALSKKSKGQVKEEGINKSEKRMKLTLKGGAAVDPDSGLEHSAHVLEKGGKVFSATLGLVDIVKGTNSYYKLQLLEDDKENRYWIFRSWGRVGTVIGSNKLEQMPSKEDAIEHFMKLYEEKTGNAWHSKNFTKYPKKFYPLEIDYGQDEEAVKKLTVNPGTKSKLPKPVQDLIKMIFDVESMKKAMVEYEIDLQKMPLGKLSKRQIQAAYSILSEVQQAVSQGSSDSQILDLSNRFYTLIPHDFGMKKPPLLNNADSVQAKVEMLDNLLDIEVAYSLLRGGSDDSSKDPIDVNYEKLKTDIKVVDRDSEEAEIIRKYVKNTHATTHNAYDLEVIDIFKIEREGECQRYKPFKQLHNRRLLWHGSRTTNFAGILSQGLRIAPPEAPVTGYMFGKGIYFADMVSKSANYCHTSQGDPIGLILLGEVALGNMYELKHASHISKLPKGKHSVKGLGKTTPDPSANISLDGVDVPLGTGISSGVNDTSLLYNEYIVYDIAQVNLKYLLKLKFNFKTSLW

## CC[C@@H]1CN(C(=O)c2cc(Cn3c(=O)[nH]c(=O)c4ccccc43)ccc2F)CCN1CC
[1]
  AUC(0-inf): 34600 ng·h/mL
T98G [2]
  inhibition: Active
MX1 [3]
  inhibition: Active
T98G [4]
  inhibition: Active
Mus musculus [5]
  Activity: Non-Toxic
[6]
  IC50: 23.1 nM
[7]
  Cmax: 208 ng/mL
U-87 MG [8]
  T/C: 14.1%
[9]
  IC50: 0.51 nM
U-251 [10]
  inhibition: Active
U-251 [11]
  Activity: Active
[12]
  Kd: 51.5 nM
[13]
  AUC(0-t) at 24 h: 1410 ng·h/mL
Mus musculus [14]
  Activity: 16.3 g
[15]
  bioavailability: 48.3%
U-87 MG [16]
  Activity: 10.3 mm3
MDA-MB-436 [17]
  Activity: Dose-dependent effect
[18]
  AUC(0-t) at 24 h: 34200 ng·h/mL
[19]
  MRT inf: 1.37 h
[20]
  MRT last at 24 h: 1.24 h
[21]
  MRT last at 24 h: 1.31 h
Daoy
  Activity: Active
[22]
  Tmax: 30 min
T98G [23]
  inhibition: Active
MX1 [24]
  inhibition in vivo at 25 mg/kg: 86.8%
U-87 MG [25]
  inhibition in vivo at 25 mg/kg: 87.9%
MDA-MB-436 [26]
  TGI: 68%
T98G [27]
  inhibition: Active
[28]
  T1/2: 5.48 min
[29]
  MRT last at 24 h: 4.58 h
[30]
  half-life: 48 min
U-251 [31]
  inhibition: Active
Homo sapiens
  Ratio IC50: 45
[32]
  half-life: 82.2 min
[33]
  Kp at 24 h: 0.1
[34]
  T1/2: 1.26 h
